Reference: patent publication US20100292224A1, “ISOTHIAZOLIDINE 1,1-DIOXIDE AND TETRAHYDRO-2H-1,2-THIAZINE 1,1-DIOXIDE DERIVATIVES AS P2X7 MODULATORS” (GLAXO GROUP LIMITED, priority 2007, published 2010)

The molecules below were run against T1, human recombinant P2X7 receptors (Homo sapiens, UniProt Q99572) (assay: Ethidium Accumulation Assay). Details: HEK293 cells stably expressing human recombinant P2X7; blocking 1 mM ATP response; typically mean of more than one measurement; 'about' values; read-out: pIC50 in the Ethidium Accumulation Assay or a slightly modified version thereof (converted).
T1 construct: expressed in transfected cells
T1 sequence (Q99572 1-595): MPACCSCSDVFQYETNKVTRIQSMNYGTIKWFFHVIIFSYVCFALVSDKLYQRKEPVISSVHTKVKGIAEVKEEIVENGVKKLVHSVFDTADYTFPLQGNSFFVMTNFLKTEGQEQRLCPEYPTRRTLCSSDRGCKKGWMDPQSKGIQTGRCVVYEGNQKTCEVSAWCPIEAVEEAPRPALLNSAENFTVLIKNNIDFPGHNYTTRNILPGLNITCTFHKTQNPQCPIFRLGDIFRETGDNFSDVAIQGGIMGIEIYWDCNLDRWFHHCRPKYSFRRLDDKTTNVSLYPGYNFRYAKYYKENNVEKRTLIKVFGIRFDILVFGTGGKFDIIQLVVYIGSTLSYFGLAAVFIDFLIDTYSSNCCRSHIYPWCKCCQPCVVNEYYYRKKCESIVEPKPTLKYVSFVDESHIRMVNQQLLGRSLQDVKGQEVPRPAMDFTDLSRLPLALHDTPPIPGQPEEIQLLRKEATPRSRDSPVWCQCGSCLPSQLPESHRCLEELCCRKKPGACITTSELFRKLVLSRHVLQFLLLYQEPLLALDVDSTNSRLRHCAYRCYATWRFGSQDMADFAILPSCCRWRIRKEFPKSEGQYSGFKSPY
Assay type: cell-based
Method: Studies were performed using NaCl assay buffer of the following composition: 140 mM NaCl, 10 mM HEPES [4-(2-hydroxyethyl)-1-piperazine-1-ethanesulfonic acid], 5 mM N-methyl-D-glucamine, 5.6 mM KCl, 10 mM D-glucose, 0.5 mM CaCl2(pH 7.4).
Human Embryonic Kidney (HEK) 293 cells, stably expressing human recombinant P2X7 receptors, were grown in poly-D-lysine pretreated 96 well plates for 18-24 hours. (The cloning of the human P2X7 receptor is described in U.S. Pat. No. 6,133,434, e.g. see Example 3 therein). The cells were washed twice with 350 μl of the assay buffer, before addition of 50 μl of the assay buffer containing the putative P2X7 receptor antagonist compound. (A small amount of dimethyl sulfoxide, for initially dissolving the compound, is optionally used and present in this 50 μl test compound sample.) The cells were then incubated at room temperature (19-21° C.) for 30 min before addition of ATP and ethidium (100 μM final assay concentration). The ATP concentration was chosen to be close to the EC80 for the receptor type and was 1 mM for studies on the human P2X7 receptor. Incubations were continued for 8 or 16 min and were terminated by addition of 25 μl of 1.3M sucrose containing 4 mM of the P2X7 receptor antagonist Reactive Black 5 (Aldrich). Cellular accumulation of ethidium was determined by measuring fluorescence (excitation wavelength of 530 nm and emission wavelength of 620 nm) from below the plate with a Can berra Packard Fluorocount (14 Station Road, Pangbourne, Reading, Berkshire RG8 7AN, United Kingdom) or a FlexStation II 384 from Molecular Molecular Devices (660-665 Eskdale Road, Wokingham, Berkshire RG41 5TS, United Kingdom). Antagonist plC50 values for blocking ATP responses were determined using iterative curve fitting techniques.

Structure (SMILES) | IC50 [nM]
CN1C(C(=O)NCc2ccc(Cl)cc2Cl)CCCS1(=O)=O (stereo not shown) [Example 35, N-[(2,4-dichlorophenyl)methyl]-2-methyltetrahydro-2H-1,2-thiazine-3-carboxamide 1,1-dioxide] | 10 to 316
CC(C)CN1C(C(=O)NCc2ccccc2Cl)CCS1(=O)=O (stereo not shown) [Example 11, N-[(2-chlorophenyl)methyl]-2-(2-methylpropyl)-3-isothiazolidinecarboxamide 1,1-dioxide] | 3980 to 15800
CN1C(C(=O)NCc2ccc(F)c(F)c2Cl)CCS1(=O)=O (stereo not shown) [Example 30, N-[(2-chloro-3,4-difluorophenyl)methyl]-2-methyl-3-isothiazolidinecarboxamide 1,1-dioxide] | 10 to 316
Cc1c(Cl)cccc1CNC(=O)C1CCS(=O)(=O)N1C(C)C (stereo not shown) [Example 18, N-[(3-chloro-2-methylphenyl)methyl]-2-(1-methylethyl)-3-isothiazolidinecarboxamide 1,1-dioxide] | 10 to 316
CCN1C(C(=O)NCc2ccc(F)c(F)c2Cl)CCS1(=O)=O (stereo not shown) [Example 31, N-[(2-chloro-3,4-difluorophenyl)methyl]-2-ethyl-3-isothiazolidinecarboxamide 1,1-dioxide] | 10 to 316
CN1C(C(=O)NCc2ccc(F)cc2C(F)(F)F)CCCS1(=O)=O (stereo not shown) [Example 48, N-{[4-fluoro-2-(trifluoromethyl)phenyl]methyl}-2-methyltetrahydro-2H-1,2-thiazine-3-carboxamide 1,1-dioxide] | 3980 to 15800
CCN1C(C(=O)NCc2ccccc2Cl)CCCS1(=O)=O (stereo not shown) [Example 39, N-[(2-chlorophenyl)methyl]-2-ethyltetrahydro-2H-1,2-thiazine-3-carboxamide 1,1-dioxide] | 3980 to 15800
CCN1C(C(=O)NCc2ccc(Cl)cc2Cl)CCCS1(=O)=O (stereo not shown) [Example 36, N-[(2,4-dichlorophenyl)methyl]-2-ethyltetrahydro-2H-1,2-thiazine-3-carboxamide 1,1-dioxide] | 10 to 316
CC(C)CN1C(C(=O)NCc2ccc(Cl)cc2Cl)CCS1(=O)=O (stereo not shown) [Example 4, N-[(2,4-dichlorophenyl)methyl]-2-(2-methylpropyl)-3-isothiazolidinecarboxamide 1,1-dioxide] | 10 to 316
CCN1C(C(=O)NCc2ccc(Cl)cc2Cl)CCS1(=O)=O (stereo not shown) [Example 24, N-[(2,4-dichlorophenyl)methyl]-2-ethyl-3-isothiazolidinecarboxamide 1,1-dioxide] | 10 to 316
Cc1cccc(Cl)c1CNC(=O)C1CCCS(=O)(=O)N1C(C)C (stereo not shown) [Example 41, N-[(2-chloro-6-methylphenyl)methyl]-2-(1-methylethyl)tetrahydro-2H-1,2-thiazine-3-carboxamide 1,1-dioxide] | 3980 to 15800
CCN1C(C(=O)NCc2cccc(C(F)(F)F)c2Cl)CCS1(=O)=O (stereo not shown) [Example 32, N-{[2-chloro-3-(trifluoromethyl)phenyl]methyl}-2-ethyl-3-isothiazolidinecarboxamide 1,1-dioxide] | 10 to 316
CCN1C(C(=O)NCc2ccc(F)cc2Cl)CCS1(=O)=O (stereo not shown) [Example 15, N-[(2-chloro-4-fluorophenyl)methyl]-2-ethyl-3-isothiazolidinecarboxamide 1,1-dioxide] | 10 to 316
CN1C(C(=O)NCc2cccc(C(F)(F)F)c2Cl)CCS1(=O)=O (stereo not shown) [Example 29, N-{[2-chloro-3-(trifluoromethyl)phenyl]methyl}-2-methyl-3-isothiazolidinecarboxamide 1,1-dioxide] | 10 to 316

Now from value to molecule:

IC50 [nM] | Structure (SMILES)
10 to 316 | CN1C(C(=O)NCc2ccc(Cl)cc2Cl)CCS1(=O)=O (stereo not shown) [Example 13, N-[(2,4-dichlorophenyl)methyl]-2-methyl-3-isothiazolidinecarboxamide 1,1-dioxide]
10 to 316 | CC(C)N1C(C(=O)NCc2ccc(Cl)cc2Cl)CCS1(=O)=O (stereo not shown) [Example 27, N-[(2,4-dichlorophenyl)methyl]-2-(1-methylethyl)-3-isothiazolidinecarboxamide 1,1-dioxide]
3980 to 15800 | CC(C)N1C(C(=O)NCc2ccc(F)c(F)c2F)CCCS1(=O)=O (stereo not shown) [Example 46, 2-(1-methylethyl)-N-[(2,3,4-trifluorophenyl)methyl]tetrahydro-2H-1,2-thiazine-3-carboxamide 1,1-dioxide]
3980 to 15800 | CC(C)N1C(C(=O)NCc2ccccc2Cl)CCCS1(=O)=O (stereo not shown) [Example 44, N-[(2-chlorophenyl)methyl]-2-(1-methylethyl)tetrahydro-2H-1,2-thiazine-3-carboxamide 1,1-dioxide]
10 to 316 | CN1C(C(=O)NCc2ccc(F)cc2Cl)CCS1(=O)=O (stereo not shown) [Example 3, N-[(2-chloro-4-fluorophenyl)methyl]-2-methyl-3-isothiazolidinecarboxamide 1,1-dioxide]
10 to 316 | CC(C)N1C(C(=O)NCc2ccc(F)cc2Cl)CCS1(=O)=O (stereo not shown) [Example 22, N-[(2-chloro-4-fluorophenyl)methyl]-2-(1-methylethyl)-3-isothiazolidinecarboxamide 1,1-dioxide]
10 to 316 | CCN1C(C(=O)NCc2ccc(F)cc2C(F)(F)F)CCS1(=O)=O (stereo not shown) [Example 21, 2-ethyl-N-{[4-fluoro-2-(trifluoromethyl)phenyl]methyl}-3-isothiazolidinecarboxamide 1,1-dioxide]
3980 to 15800 | CC(C)N1C(C(=O)NCc2ccc(F)cc2C(F)(F)F)CCCS1(=O)=O (stereo not shown) [Example 47, N-{[4-fluoro-2-(trifluoromethyl)phenyl]methyl}-2-(1-methylethyl)tetrahydro-2H-1,2-thiazine-3-carboxamide 1,1-dioxide]
3980 to 15800 | CC(C)N1C(C(=O)NCc2ccc(F)cc2Cl)CCCS1(=O)=O (stereo not shown) [Example 43, N-[(2-chloro-4-fluorophenyl)methyl]-2-(1-methylethyl)tetrahydro-2H-1,2-thiazine-3-carboxamide 1,1-dioxide]
10 to 316 | CCN1C(C(=O)NCc2cccc(Cl)c2C)CCS1(=O)=O (stereo not shown) [Example 20, N-[(3-chloro-2-methylphenyl)methyl]-2-ethyl-3-isothiazolidinecarboxamide 1,1-dioxide]
10 to 316 | Cc1c(Cl)cccc1CNC(=O)C1CCS(=O)(=O)N1C (stereo not shown) [Example 17, N-[(3-chloro-2-methylphenyl)methyl]-2-methyl-3-isothiazolidinecarboxamide 1,1-dioxide]
